Test results as given in US20120245137A1 (Zalicus Pharmaceuticals Ltd., priority 2009, published 2012).
pIC50: −log10 of the molar value. Like-named read-outs stand apart in the source and are kept apart here.

How the values were obtained:
Type in all cases: cell-based
CAv1.2 = CAv1.2 (Homo sapiens, UniProt Q13936); assay: L-type (CAv1.2) channel blocking, FLIPR data (Table 6)
T-type calcium channel [1] = molecular target: T-type calcium channel (Homo sapiens, UniProt O95180); assay: T-type channel blocking, FLIPR data (Table 6); settings: for CAv3.2 IC50 Ratio closed/inact.: CAv3.2, ratio closed/inact.
Description: (§1) Another method, high-throughput spectrophotometric assay, utilizes loading of the cell lines with a fluorescent dye sensitive to intracellular calcium concentration and subsequent examination of the effects of compounds on the ability of depolarization by potassium chloride or other means to alter intracellular calcium levels.

T-type calcium channel [2] = molecular target: T-type calcium channel (Homo sapiens, UniProt O43497); assay: T-type channel blocking, FLIPR data (Table 6); settings: CAv3.1
Description: as §1

Human Cav 2.2 channels = Human Cav 2.2 channels (Homo sapiens, UniProt Q00975); assay: Fluorescent assay for CaV2.2 channels using potassium depolarization (VIPR/FLIPR); settings: FLIPR data
Summary of the method: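 Fluo-4 calcium fluorescence (480/535 nm) was recorded on VIPR or FLIPR after depolarization to 70 mM final potassium. Before this, cells were preincubated 30 min at 25 °C with compound in 4–30 mM potassium, so that state-dependent block could be assessed; the cells were HEK293 coexpressing Cav2.2, α2δ, β and Kir2.3.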

[3] = closed state, read-out: CAv1.2 IC50 Closed
[4] = inactivated state, read-out: CAv1.2 IC50 Inact.
[5] = CAv3.2, closed state, read-out: CAv3.2 IC50 Closed
[6] = CAv3.2, inactivated state, read-out: CAv3.2 IC50 Inact.
[7] = closed state, read-out: CAv2.2 IC50 Closed
[8] = inactivated state, read-out: CAv2.2 IC50 Inact.

Human Cav 2.2 channels, sequence (Q00975 whole entry): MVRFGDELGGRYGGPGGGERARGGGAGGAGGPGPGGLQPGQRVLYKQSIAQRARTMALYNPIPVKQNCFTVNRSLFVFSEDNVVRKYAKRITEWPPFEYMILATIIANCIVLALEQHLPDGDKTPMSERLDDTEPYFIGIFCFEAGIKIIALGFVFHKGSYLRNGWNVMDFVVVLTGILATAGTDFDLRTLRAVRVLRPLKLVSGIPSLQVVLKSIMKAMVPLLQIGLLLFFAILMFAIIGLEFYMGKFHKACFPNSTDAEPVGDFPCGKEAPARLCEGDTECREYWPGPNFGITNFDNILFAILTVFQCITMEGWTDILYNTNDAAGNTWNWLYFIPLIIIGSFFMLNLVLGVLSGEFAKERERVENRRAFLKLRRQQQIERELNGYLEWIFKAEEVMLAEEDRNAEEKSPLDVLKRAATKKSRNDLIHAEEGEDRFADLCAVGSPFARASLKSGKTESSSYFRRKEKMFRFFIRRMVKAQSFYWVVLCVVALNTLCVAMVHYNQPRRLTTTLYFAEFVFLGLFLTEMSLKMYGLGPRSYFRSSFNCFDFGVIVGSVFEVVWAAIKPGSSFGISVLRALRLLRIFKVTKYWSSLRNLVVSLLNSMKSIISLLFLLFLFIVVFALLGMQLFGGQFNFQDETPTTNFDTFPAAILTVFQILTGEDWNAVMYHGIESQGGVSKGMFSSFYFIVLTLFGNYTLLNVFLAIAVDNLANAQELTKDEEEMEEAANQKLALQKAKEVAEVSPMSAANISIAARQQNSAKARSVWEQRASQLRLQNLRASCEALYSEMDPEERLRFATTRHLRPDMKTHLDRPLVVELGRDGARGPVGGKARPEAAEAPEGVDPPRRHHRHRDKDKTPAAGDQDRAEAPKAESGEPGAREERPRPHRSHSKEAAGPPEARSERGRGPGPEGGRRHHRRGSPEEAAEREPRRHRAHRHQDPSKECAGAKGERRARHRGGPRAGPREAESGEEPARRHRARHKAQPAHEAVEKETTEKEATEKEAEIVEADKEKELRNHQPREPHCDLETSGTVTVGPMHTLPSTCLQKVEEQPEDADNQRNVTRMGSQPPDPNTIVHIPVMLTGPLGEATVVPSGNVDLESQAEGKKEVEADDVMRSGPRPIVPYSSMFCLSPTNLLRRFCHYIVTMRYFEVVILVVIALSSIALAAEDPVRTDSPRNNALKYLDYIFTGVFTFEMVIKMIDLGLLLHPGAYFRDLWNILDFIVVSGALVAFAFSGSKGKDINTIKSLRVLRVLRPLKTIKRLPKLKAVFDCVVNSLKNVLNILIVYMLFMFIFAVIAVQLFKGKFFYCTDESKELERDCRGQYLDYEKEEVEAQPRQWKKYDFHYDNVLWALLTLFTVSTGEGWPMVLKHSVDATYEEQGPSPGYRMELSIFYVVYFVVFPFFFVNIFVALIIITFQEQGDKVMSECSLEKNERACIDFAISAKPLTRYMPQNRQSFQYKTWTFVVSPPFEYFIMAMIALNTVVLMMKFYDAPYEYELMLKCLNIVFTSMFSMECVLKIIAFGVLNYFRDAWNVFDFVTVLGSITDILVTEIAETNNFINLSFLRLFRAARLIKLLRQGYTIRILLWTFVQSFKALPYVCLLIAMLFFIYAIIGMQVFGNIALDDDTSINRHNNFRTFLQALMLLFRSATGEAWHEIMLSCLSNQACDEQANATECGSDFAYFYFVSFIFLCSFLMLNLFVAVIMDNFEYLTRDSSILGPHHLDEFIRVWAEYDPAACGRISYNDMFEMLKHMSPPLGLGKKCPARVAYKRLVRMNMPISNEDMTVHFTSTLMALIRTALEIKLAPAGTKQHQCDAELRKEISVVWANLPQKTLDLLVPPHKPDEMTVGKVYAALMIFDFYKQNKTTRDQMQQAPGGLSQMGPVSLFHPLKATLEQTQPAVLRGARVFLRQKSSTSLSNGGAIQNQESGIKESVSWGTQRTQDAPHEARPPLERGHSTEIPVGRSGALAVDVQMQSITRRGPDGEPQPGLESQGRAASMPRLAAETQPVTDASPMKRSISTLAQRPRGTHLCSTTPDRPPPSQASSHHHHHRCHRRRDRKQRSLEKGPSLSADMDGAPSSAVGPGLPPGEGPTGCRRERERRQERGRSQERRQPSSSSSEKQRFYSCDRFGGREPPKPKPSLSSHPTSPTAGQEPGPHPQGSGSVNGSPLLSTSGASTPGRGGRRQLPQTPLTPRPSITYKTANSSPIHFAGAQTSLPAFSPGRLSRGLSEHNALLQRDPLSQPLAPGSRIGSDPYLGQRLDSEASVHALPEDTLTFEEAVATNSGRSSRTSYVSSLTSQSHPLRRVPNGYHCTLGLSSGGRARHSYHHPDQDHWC
Human Cav 2.2 channels, sequence (P54289 25-1103 partner): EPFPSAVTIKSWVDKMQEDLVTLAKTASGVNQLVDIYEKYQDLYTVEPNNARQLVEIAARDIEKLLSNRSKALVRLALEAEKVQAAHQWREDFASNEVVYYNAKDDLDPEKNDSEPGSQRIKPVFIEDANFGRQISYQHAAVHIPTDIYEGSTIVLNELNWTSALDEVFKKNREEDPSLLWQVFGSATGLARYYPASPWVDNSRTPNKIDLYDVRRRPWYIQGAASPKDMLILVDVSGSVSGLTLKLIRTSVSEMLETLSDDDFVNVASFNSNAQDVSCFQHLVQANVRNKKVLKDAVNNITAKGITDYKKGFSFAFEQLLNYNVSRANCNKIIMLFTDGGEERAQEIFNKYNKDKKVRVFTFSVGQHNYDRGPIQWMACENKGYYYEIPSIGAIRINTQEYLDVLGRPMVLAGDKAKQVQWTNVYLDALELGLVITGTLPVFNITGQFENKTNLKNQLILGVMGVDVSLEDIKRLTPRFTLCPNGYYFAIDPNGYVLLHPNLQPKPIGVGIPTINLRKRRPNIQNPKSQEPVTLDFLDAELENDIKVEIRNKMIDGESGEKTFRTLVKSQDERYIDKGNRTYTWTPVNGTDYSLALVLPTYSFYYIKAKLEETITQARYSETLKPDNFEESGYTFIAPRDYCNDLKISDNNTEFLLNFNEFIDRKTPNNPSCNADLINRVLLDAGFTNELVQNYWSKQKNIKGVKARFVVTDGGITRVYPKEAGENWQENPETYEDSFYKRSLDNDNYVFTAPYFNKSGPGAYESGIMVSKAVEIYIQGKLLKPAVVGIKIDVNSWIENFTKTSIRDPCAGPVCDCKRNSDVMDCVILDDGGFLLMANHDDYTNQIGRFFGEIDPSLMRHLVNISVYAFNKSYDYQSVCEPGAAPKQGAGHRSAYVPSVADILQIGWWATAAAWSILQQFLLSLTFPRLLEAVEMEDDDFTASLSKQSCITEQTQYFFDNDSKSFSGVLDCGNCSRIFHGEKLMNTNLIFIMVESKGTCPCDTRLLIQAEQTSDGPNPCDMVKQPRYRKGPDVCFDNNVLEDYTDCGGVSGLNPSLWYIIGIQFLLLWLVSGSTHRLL
Human Cav 2.2 channels, sequence (P54284 whole entry partner): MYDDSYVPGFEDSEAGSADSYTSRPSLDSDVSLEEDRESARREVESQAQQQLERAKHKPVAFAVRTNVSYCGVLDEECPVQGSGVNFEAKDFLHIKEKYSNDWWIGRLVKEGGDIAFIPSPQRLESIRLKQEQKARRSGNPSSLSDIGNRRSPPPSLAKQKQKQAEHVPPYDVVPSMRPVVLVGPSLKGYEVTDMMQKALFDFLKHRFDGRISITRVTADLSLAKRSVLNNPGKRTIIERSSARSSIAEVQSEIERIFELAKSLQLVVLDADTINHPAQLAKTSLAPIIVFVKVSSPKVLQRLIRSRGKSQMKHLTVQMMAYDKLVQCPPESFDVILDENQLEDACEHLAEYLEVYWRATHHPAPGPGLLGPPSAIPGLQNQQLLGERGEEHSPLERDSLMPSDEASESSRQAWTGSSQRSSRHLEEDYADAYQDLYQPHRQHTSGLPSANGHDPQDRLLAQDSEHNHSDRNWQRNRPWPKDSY

Structure (SMILES) | pIC50 (T-type calcium channel [1]; [5]) | pIC50 (T-type calcium channel [1]; [6]) | CAv3.2 IC50 Ratio closed/inact. (T-type calcium channel [1]) | pIC50 (T-type calcium channel [2]) | pIC50 (Human Cav 2.2 channels; [7]) | pIC50 (Human Cav 2.2 channels; [8]) | CAv2.2 IC50 Ratio closed/inact. (Human Cav 2.2 channels) | pIC50 (CAv1.2; [3]) | pIC50 (CAv1.2; [4]) | CAv1.2 IC50 Ratio closed/inact. (CAv1.2)
CC(C)([C@H]1C[C@H](CNc2ccc(F)c(Cl)c2)C1)S(=O)(=O)c1cccc(C(F)(F)F)c1 [Compound 750] | ≤ 5.00 | 6.13 | 13.5 | 5.47 | 5.63 | 6.77 | 13.7 | 5.47 | 6.00 | 3.5
CC(C)(C[C@H]1C[C@@H](NC(=O)[C@H]2CCCC[C@@H]2N)C1)S(=O)(=O)c1cccc(C(F)(F)F)c1 [Compound 745] | ≤ 5.00 | 5.00 | 1 | ≤ 5.00 | 5.37 | 5.92 | 3.5 | 5.06 | ≤ 5.00 | 0.9
CC(C)([C@H]1C[C@@H](CNc2ccc(F)c(Cl)c2)C1)S(=O)(=O)c1cccc(C(F)(F)F)c1 [Compound 753] | ≤ 5.00 | 5.79 | 6.1 | 5.35 | 5.42 | 6.48 | 11.5 | 5.13 | 5.82 | 4.9
CC(C)(C[C@H]1C[C@@H](NC(=O)[C@H]2CCCC[C@H]2N)C1)S(=O)(=O)c1cccc(C(F)(F)F)c1 [Compound 744] | ≤ 5.00 | – | – | ≤ 5.00 | 5.39 | 6.03 | 4.4 | ≤ 5.00 | ≤ 5.00 | –
CC(C)([C@H]1C[C@@H](C(=O)Nc2ccc(C(F)(F)F)nc2)C1)S(=O)(=O)c1cccc(C(F)(F)F)c1 [Compound 759] | 5.45 | 5.68 | 1.7 | 5.64 | 5.44 | 6.32 | 7.6 | 5.29 | 5.66 | 2.3
O=C(c1ccc(OCC(F)(F)F)nc1)N1CC(CS(=O)(=O)c2cc(F)cc(C(F)(F)F)c2)C1 [Compound 747] | 5.00 | 5.25 | 1.8 | ≤ 5.00 | 5.00 | 5.30 | 2 | ≤ 5.00 | 5.06 | 1.1
Cn1nc(C(F)(F)F)cc1C(=O)N1CC(CS(=O)(=O)c2cc(F)cc(C(F)(F)F)c2)C1 [Compound 748] | ≤ 5.00 | 5.07 | 1.2 | ≤ 5.00 | 5.00 | 5.28 | 1.9 | ≤ 5.00 | ≤ 5.00 | –
CC(C)([C@H]1C[C@@H](C(=O)Nc2cc(C(F)(F)F)n[nH]2)C1)S(=O)(=O)c1cccc(C(F)(F)F)c1 [Compound 757] | 5.22 | 5.64 | 2.6 | 5.65 | 5.24 | 6.26 | 10.5 | ≤ 5.00 | 5.27 | 1.9
CC(C)([C@H]1C[C@@H](C(=O)Nc2ccc(C(F)(F)F)cn2)C1)S(=O)(=O)c1cccc(C(F)(F)F)c1 [Compound 758] | 5.39 | 5.71 | 2.1 | 5.67 | 5.60 | 6.41 | 6.5 | 5.45 | 5.73 | 1.9
CC(C)([C@H]1C[C@H](CNc2cc(C(F)(F)F)n[nH]2)C1)S(=O)(=O)c1cccc(C(F)(F)F)c1 [Compound 752] | 5.23 | 5.73 | 3.1 | 5.31 | 5.43 | 6.55 | 13.2 | 5.07 | 5.55 | 3.1
CC(C)(C[C@H]1C[C@@H](NC(=O)[C@@H]2CCCC[C@H]2N)C1)S(=O)(=O)c1cccc(C(F)(F)F)c1 [Compound 741] | ≤ 5.00 | 5.00 | 1 | ≤ 5.00 | 5.41 | 5.88 | 2.9 | ≤ 5.00 | ≤ 5.00 | –
CC(C)(C[C@H]1C[C@@H](NC(=O)[C@@H]2CCCC[C@@H]2N)C1)S(=O)(=O)c1cccc(C(F)(F)F)c1 [Compound 740] | ≤ 5.00 | 5.00 | 1 | ≤ 5.00 | 5.41 | 6.07 | 4.6 | ≤ 5.00 | ≤ 5.00 | –

The next lines start with results.

pIC50 (T-type calcium channel [1]; [5]) | pIC50 (T-type calcium channel [1]; [6]) | CAv3.2 IC50 Ratio closed/inact. (T-type calcium channel [1]) | pIC50 (T-type calcium channel [2]) | pIC50 (Human Cav 2.2 channels; [7]) | pIC50 (Human Cav 2.2 channels; [8]) | CAv2.2 IC50 Ratio closed/inact. (Human Cav 2.2 channels) | Structure (SMILES) | pIC50 (CAv1.2; [3]) | pIC50 (CAv1.2; [4]) | CAv1.2 IC50 Ratio closed/inact. (CAv1.2)
5.17 | 5.45 | 1.9 | 5.34 | 5.38 | 6.41 | 10.7 | Cc1nc(C(F)(F)F)ccc1NC(=O)[C@H]1C[C@H](C(C)(C)S(=O)(=O)c2cccc(C(F)(F)F)c2)C1 [Compound 768] | ≤ 5.00 | 5.35 | 2.3
5.15 | 6.02 | 7.3 | 5.19 | 5.69 | 6.57 | 7.6 | CC(C)([C@H]1C[C@H](C(=O)Nc2ccc(C(F)(F)F)cc2Cl)C1)S(=O)(=O)c1cccc(C(F)(F)F)c1 [Compound 763] | ≤ 5.00 | 5.66 | 4.6
5.34 | 6.14 | 6.3 | 5.55 | 5.54 | 6.72 | 15.1 | CC(C)([C@H]1C[C@H](C(=O)Nc2ccc(C(F)(F)F)nc2)C1)S(=O)(=O)c1cccc(C(F)(F)F)c1 [Compound 760] | ≤ 5.00 | 5.45 | 2.8
5.06 | 5.79 | 5.3 | ≤ 5.00 | 5.00 | 5.24 | 1.7 | O=C(NC[C@H]1C[C@H](S(=O)(=O)c2cccc(Cl)c2)C1)c1ccc(OCC(F)(F)F)nc1 [Compound 775] | ≤ 5.00 | ≤ 5.00 | –
5.54 | 6.37 | 6.7 | 6.11 | 5.99 | 6.96 | 9.3 | CC(C)([C@H]1C[C@H](C(=O)NCc2ccc(Oc3ccccc3)cc2)C1)S(=O)(=O)c1cccc(C(F)(F)F)c1 [Compound 764] | 5.49 | 6.08 | 3.9
5.34 | 5.82 | 3.1 | 5.70 | 5.47 | 6.38 | 8.1 | CC(C)([C@H]1C[C@H](C(=O)Nc2ccc(C(F)(F)F)cc2)C1)S(=O)(=O)c1cccc(C(F)(F)F)c1 [Compound 765] | 5.17 | 5.65 | 3
≤ 5.00 | 5.77 | 5.8 | 5.38 | 5.80 | 6.82 | 10.7 | CC(C)([C@H]1C[C@H](C(=O)Nc2ccc(Cl)cn2)C1)S(=O)(=O)c1cccc(C(F)(F)F)c1 [Compound 761] | 5.07 | 5.34 | 1.9
5.26 | 5.52 | 1.8 | ≤ 5.00 | 5.00 | 5.70 | 5 | O=C(NC[C@H]1C[C@H](S(=O)(=O)c2cccc(Cl)c2)C1)c1ccc(C(F)(F)F)cc1 [Compound 771] | ≤ 5.00 | ≤ 5.00 | –
≤ 5.00 | 5.02 | 1 | ≤ 5.00 | 5.27 | 6.24 | 9.4 | CC(C)([C@H]1C[C@H](C(=O)NCc2ccc(C(F)(F)F)nc2)C1)S(=O)(=O)c1cccc(C(F)(F)F)c1 [Compound 767] | ≤ 5.00 | 5.29 | 1.9
≤ 5.00 | 5.74 | 5.4 | 5.58 | 5.20 | 6.41 | 16.1 | CC(C)([C@H]1C[C@H](C(=O)Nc2cc(C(F)(F)F)n[nH]2)C1)S(=O)(=O)c1cccc(C(F)(F)F)c1 [Compound 762] | ≤ 5.00 | 5.14 | 1.4
